Like-named read-outs stand apart in the source and are kept apart here. Oligonucleotides are written 5' to 3', each unit as a sugar letter and its base; * is a phosphorothioate linkage, no mark a phosphodiester; rarer units and linkages stand in square brackets, end groups in braces. Plain capitals give the bases only. {PPP} = triphosphate group; r = 2'-OH (RNA)
B1: 5′-OH-Int-NS1: RNA oligonucleotide composed of the base sequence of SEQ ID NO:7 with a hydroxy group at the 5′-end (nucleic acid)
chain: AGUAGAAACAAGGGUGUUUUUUAUUAUUAAAUAAGCUGAAGUGUUUGGAUCCAUUAUGUCUUUGUCACCCUGCUUUUGCU
modifications: RNA, backbone not given here; 5'-hydroxy
B2: 5′-OH-Long_Bend: Long-length RNA oligonucleotide composed of the base sequence of SEQ ID NO:19 with a hydroxy group at the 5′-end (nucleic acid)
chain: GGUAGACGAAACCAGAUAAAAAAAAAAAAAAAAAAAAAAAAAAUAAUUUUUUUUUUUUUUUUUUUUUUUUUUAUCUGGUUUCGUUUGCC
modifications: RNA, phosphodiester; 5'-hydroxy
B3: 5′-OH-Long_Bend-BPS: 5′-OH-Long_Bend RNA oligonucleotide with part of phosphodiester bonds substituted with phosphorothioate bonds (nucleic acid)
chain: B2 chain
modifications: RNA, backbone not given here; 5'-hydroxy, partial phosphorothioate
B4: 5′-OH-Long_Bend Short: RNA oligonucleotide composed of the base sequence of SEQ ID NO:20 with a hydroxy group at the 5′-end (nucleic acid)
chain: GGUAGACGAAAAAAAAAAAAAAAAAAAAAAAAAAUAAUUUUUUUUUUUUUUUUUUUUUUUUUUCGUUUGCC
modifications: RNA, backbone not given here; 5'-hydroxy

Assays:
Type in all cases: cell-based
ISG56 = details: for change in ISG56 expression: same method as Experimental Example 1, real-time PCR vs GAPDH, FIGS. 5 to 8
interferon-β = details: HEK293T cells, 1 μM RNA oligonucleotide with lipofectamine LTX, real-time PCR vs GAPDH; FIG. 3 and FIG. 4
[1] = tested on: influenza A virus/Puerto Rico/8/34(H1N1)(PR8)
[2] = tested on: influenza A virus/Puerto Rico/8/34(H1N1)(PR8); remark: listed apart in the source
[3] = A549 cells infected with influenza A virus, FIG. 10 and FIG. 11

| Molecule | change in ISG56 expression (ISG56) | change in interferon-β expression (interferon-β) | other results |
| --- | --- | --- | --- |
| 5′-OH-16mer-Double Bend: Double strands of two base sequences of SEQ ID NO:18, each with a 5′-hydroxy group; palindromic, two helical bend structures (chain 1 GGUAGACGCGUUUGCC; chain 2 GGUAGACGCGUUUGCC; sugars by position and backbone not given here; 5'-hydroxy ends, palindromic duplex) | increased the ISG56 expression to a significant level |  |  |
| 5′-OH-Bend-GC-8 bp: Shorter hairpin RNA composed of the base sequence of SEQ ID NO:10 with a hydroxy group at the 5′-end (GGUAGACGUUCGCGUUUGCC; RNA, phosphodiester; 5'-hydroxy, hairpin) |  | increased the interferon-β expression to a significant level |  |
| 5′-OH-Bend-GC-8 bp-PS: 5′-OH-Bend-GC-8 bp RNA oligonucleotide with phosphodiester bonds substituted with phosphorothioate bonds (rG*rG*rU*rA*rG*rA*rC*rG*rU*rU*rC*rG*rC*rG*rU*rU*rU*rG*rC*rC; 5'-hydroxy, hairpin) | increased the ISG56 expression to a significant level |  | antiviral activity against influenza A virus (Western blot of viral NP and NS1) [1]: showed antiviral activity against influenza A virus in a concentration-dependent manner; antiviral activity against influenza A virus (plaque assay, titer of viruses) [2]: showed antiviral activity against influenza A virus in a concentration-dependent manner |
| 5′-OH-8 bp-Bend-GC-Minimum: Minimum-length double-stranded RNA of SEQ ID NO:3 and SEQ ID NO:4, each with a 5′-hydroxy group (chain 1 GGUAGACG; chain 2 CGUUUGCC; RNA, backbone not given here; 5'-hydroxy ends) | increased the ISG56 expression to a significant level |  |  |
| 5′-OH-iav: RNA oligonucleotide composed of the base sequence of SEQ ID NO:6 with a hydroxy group at the 5′-end (GAGUAGAAACAAGGCUUCGGCCUGCUUUUGCUC; RNA, backbone not given here; 5'-hydroxy) | increase the expression of interferon-β and ISG56 | increase the expression of interferon-β and ISG56 |  |
| 5′-OH-Bend-GC: RNA oligonucleotide composed of the base sequence of SEQ ID NO:8 with a hydroxy group at the 5′-end (GGUAGACGCGCGCGUUCGCGCGCGCGUUUGCC; RNA, backbone not given here; 5'-hydroxy, hairpin) |  | increased the interferon-β expression to a significant level |  |
| 5′-PPP-iav: RNA oligonucleotide composed of the base sequence of SEQ ID NO:6 with a triphosphate group at the 5′-end (GAGUAGAAACAAGGCUUCGGCCUGCUUUUGCUC; RNA, 5' {PPP}, backbone not given here) | increase the expression of interferon-β and ISG56 | increase the expression of interferon-β and ISG56 |  |
| B1 |  | increased the interferon-β expression to a significant level |  |
| B2 | increased the ISG56 expression to a significant level |  | concentration at which expression of viral protein was significantly inhibited (Western blot) [1, 3]: ≥ 10 nM; antiviral effect at low concentration compared with positive control (Western blot) ([1]; A549 cells, 10 nM, positive control 0.1 μg/ml poly I:C, FIG. 9A): excellent effect corresponding to the positive control group (poly I:C); antiviral activity against influenza A virus (Western blot of viral NP and NS1) ([1]; A549 cells, 10, 30 or 100 nM, transfected 24 h before infection at 0.1 MOI, FIG. 9A): showed antiviral activity against influenza A virus in a concentration-dependent manner; antiviral effect at low concentration compared with positive control (plaque assay) ([2]; A549 cells, 10 nM, positive control 0.1 μg/ml poly I:C, FIG. 9B): excellent effect corresponding to the positive control group (poly I:C); antiviral activity against influenza A virus (plaque assay, titer of viruses) ([2]; A549 cells, 10, 30 or 100 nM, titer on MDCK cells, FIG. 9B): showed antiviral activity against influenza A virus in a concentration-dependent manner |
| B3 | increased the ISG56 expression to a significant level |  | concentration at which expression of viral protein was significantly inhibited (Western blot) [1]: ≥ 1 nM; increase in the ISG56 expression as compared to 5′-OH-Bend-GC-8 bp (ISG56; FIG. 8): about 7 fold |
| B4 |  |  | concentration at which expression of viral protein was significantly inhibited (Western blot) [1, 3]: 100 nM |

— patent US10519452B2, “Antiviral agent comprising RNA oligonucleotide” (priority 2015, dated 2019)
